# Source: patent publication US20230025510A1, “BIARYL ETHER-TYPE QUINAZOLINE DERIVATIVES” (DAIICHI SANKYO COMPANY, LIMITED, priority 2018, published 2023)
# Assays:
# Assay type in all cases: cell-based
# [1] = system: Ba/F3-EGFR ins. SVD cells; assay: Cell proliferation suppression test (CellTiter-Glo, GI50), Ba/F3-EGFR ins. SVD; conditions: Mus musculus, 72 h, 3 days, N=4
# Procedure: (§1) Cell proliferation suppression test Ba/F3-Mock, Ba/F3-EGFR WT, Ba/F3-EGFR ins. ASV, and Ba/F3-EGFR ins. SVD cell lines were cultured based on a culture medium of 10% FBS-containing RPMI 1640 supplemented with 1.5 ug/mL puromycin, and 5 ng/mL IL-3 and 100 ng/mL of EGF were further added to the culture solution for Ba/F3-Mock and Ba/F3-EGFR WT, respectively. The cells were cultured in a CO2 incubator set at 37° C., 5% CO2. Specimens prepared by dilution were seeded into 384-well tissue culture plates with Echo555 (Labcyte Inc.), and the cells were seeded thereto at 400 cells/well for Ba/F3-Mock, Ba/F3-EGFR WT, and Ba/F3-EGFR ins. SVD and at 200 cells/well for Ba/F3-EGFR ins. ASV (day 0), then they were cultured for an additional 3 days. On the day of the compound addition (day 0) and 3 days after the compound addition (day 3), ATP quantity was measured with CellTiter-Glo (registered trademark) 2.0 (Promega Corporation.), and used as an indicator of cell quantity (N=4). In the test, puromycin-free culture medium was used. Concentrations at which cell proliferation from day 0 to day 3 was inhibited by 50% (GIso) were calculated with EXCEL.
# [2] = system: Ba/F3-EGFR WT cells; assay: Cell proliferation suppression test (CellTiter-Glo, GI50), Ba/F3-EGFR WT; conditions: Mus musculus, 72 h, 100 ng/mL EGF, 3 days, N=4
# Procedure: as §1
# [3] = system: Ba/F3-EGFR ins. ASV cells; assay: Cell proliferation suppression test (CellTiter-Glo, GI50), Ba/F3-EGFR ins. ASV; conditions: Mus musculus, 72 h, 3 days, N=4
# Procedure: as §1
# [4] = system: Ba/F3-Mock cells; assay: Cell proliferation suppression test (CellTiter-Glo, GI50), Ba/F3-Mock; conditions: Mus musculus, BaF3, 72 h, 5 ng/mL IL-3, 3 days, N=4
# Procedure: as §1
Compound,GI50 [1] [nM],GI50 [2] [nM],GI50 [3] [nM],GI50 [4] [nM]
"C=CC(=O)N1CCC(Oc2cc3c(Nc4ccc(Oc5nc(-c6cnc(C)nc6)cs5)cc4F)ncnc3cc2OC)CC1 [Example 36, 1-(4-{[4-(2-Fluoro-4-{[4-(2-methylpyrimidin-5-yl)-1,3-thiazol-2-yl]oxy}anilino)-7-methoxyquinazolin-6-yl]oxy}piperidin-1-yl)prop-2-en-1-one]",10,377,12,> 10000
"C=CC(=O)N1CCC(Oc2cc3c(Nc4ccc(Oc5nc(-c6ccc(C)nc6)cs5)cc4F)ncnc3cc2OC)CC1 [Example 37, 1-(4-{[4-(2-Fluoro-4-{[4-(6-methylpyridin-3-yl)-1,3-thiazol-2-yl]oxy}anilino)-7-methoxyquinazolin-6-yl]oxy}piperidin-1-yl)prop-2-en-1-one]",5.7,163,10.5,> 10000
"C=CC(=O)N1CCC(Oc2cc3c(Nc4ccc(Oc5nc(-c6cncc(F)c6)cs5)cc4F)ncnc3cc2OC)CC1 [Example 38, 1-(4-{[4-(2-Fluoro-4-{[4-(5-fluoropyridin-3-yl)-1,3-thiazol-2-yl]oxy}anilino)-7-methoxyquinazolin-6-yl]oxy}piperidin-1-yl)prop-2-en-1-one]",18.3,174,17,> 10000
"CCOc1cc2ncnc(Nc3ccc(Oc4cccc(-c5nnc(C)o5)c4)cc3F)c2cc1NC(=O)/C=C/CN(C)C [Example 40, (2E)-4-(Dimethylamino)-N-(7-ethoxy-4-{2-fluoro-4-[3-(5-methyl-1,3,4-oxadiazol-2-yl)phenoxy]anilino}quinazolin-6-yl)but-2-enamide]",32.9,80.1,5.5,765
"CCc1nnc(-c2cccc(Oc3ccc(Nc4ncnc5cc(OC)c(NC(=O)/C=C/CN(C)C)cc45)c(F)c3)c2)o1 [Example 41, (2E)-4-(Dimethylamino)-N-(4-{4-[3-(5-ethyl-1,3,4-oxadiazol-2-yl)phenoxy]-2-fluoroanilino)-7-methoxyquinazolin-6-yl)but-2-enamide]",27,114,8.2,841
"CCOc1cc2ncnc(Nc3ccc(Oc4cccc(-c5nnc(CC)o5)c4)cc3F)c2cc1NC(=O)/C=C/CN(C)C [Example 42, (2E)-4-(Dimethylamino)-N-(7-ethoxy-4-{4-[3-(5-ethyl-1,3,4-oxadiazol-2-yl)phenoxy]-2-fluoroanilino}quinazolin-6-yl)but-2-enamide]",17.7,103,5.1,764
"COc1cc2ncnc(Nc3ccc(Oc4cccc(-c5nnc(C(C)C)o5)c4)cc3F)c2cc1NC(=O)/C=C/CN(C)C [Example 43, (2E)-4-(Dimethylamino)-N-[4-(2-fluoro-4-{3-[5-(propan-2-yl)-1,3,4-oxadiazol-2-yl]phenoxy}anilino)-7-methoxyquinazolin-6-yl]but-2-enamide]",14.1,69.8,5.5,806
"COc1cc2ncnc(Nc3ccc(Oc4cccc(-c5nnc(C)o5)c4)cc3F)c2cc1NC(=O)/C=C/CN1CCCC1 [Example 50, (2E)-N-(4-{2-Fluoro-4-[3-(5-methyl-1,3,4-oxadiazol-2-yl)phenoxy]anilino}-7-methoxyquinazolin-6-yl)-4-(pyrrolidin-1-yl)but-2-enamide]",62.2,240,10.9,750
"CCOc1cc2ncnc(Nc3ccc(Oc4cccc(-c5nnc(C6CC6)o5)c4)cc3F)c2cc1NC(=O)/C=C/CN(C)C [Example 51, (2E)-N-(4-{4-[3-(5-Cyclopropyl-1,3,4-oxadiazol-2-yl)phenoxy]-2-fluoroanilino}-7-ethoxyquinazolin-6-yl)-4-(dimethylamino)but-2-enamide]",20.5,104,11.8,806
"CCOc1cc2ncnc(Nc3ccc(Oc4cccc(-c5nnc(C)o5)c4)cc3F)c2cc1NC(=O)/C=C/CN[C@H]1CCOC1 [Example 52, (2E)-N-(7-Ethoxy-4-{2-fluoro-4-[3-(5-methyl-1,3,4-oxadiazol-2-yl)phenoxy]anilino}quinazolin-6-yl)-4-[(3S)-tetrahydrofuran-3-ylamino]but-2-enamide]",19.8,245,11.9,2840
"CCOc1cc2ncnc(Nc3ccc(Oc4cccc(-c5nnc(C)o5)c4)cc3F)c2cc1NC(=O)/C=C/CN[C@@H]1CCOC1 [Example 53, (2E)-N-(7-Ethoxy-4-{2-fluoro-4-[3-(5-methyl-1,3,4-oxadiazol-2-yl)phenoxy]anilino}quinazolin-6-yl)-4-[(3R)-tetrahydrofuran-3-ylamino]but-2-enamide]",16.7,229,11,2950

# Second part, led by results:
GI50 [1] [nM],GI50 [2] [nM],GI50 [3] [nM],Compound,GI50 [4] [nM]
58.7,161,12.2,"COc1cc2ncnc(Nc3ccc(Oc4cccc(-c5nnc(C)o5)c4)cc3F)c2cc1NC(=O)/C=C/CN(C)C [Example 39, (2E)-4-(Dimethylamino)-N-(4-{2-fluoro-4-[3-(5-methyl-1,3,4-oxadiazol-2-yl)phenoxy]anilino}-7-methoxyquinazolin-6-yl)but-2-enamide]",1150
52.2,167,15.5,"COc1cc2ncnc(Nc3ccc(Oc4cccc(-c5nnc(C)s5)c4)cc3F)c2cc1NC(=O)/C=C/CN(C)C [Example 44, (2E)-4-(Dimethylamino)-N-(4-{2-fluoro-4-[3-(5-methyl-1,3,4-thiadiazol-2-yl)phenoxy]anilino}-7-methoxyquinazolin-6-yl)but-2-enamide]",724
11.6,412,10,"COc1cc2ncnc(Nc3ccc(Oc4nn(CC(=O)NC(C)(C)C)cc4F)cc3Cl)c2cc1NC(=O)/C=C/CN(C)C [Example 45, (2E)-N-{4-[4-({1-[2-(tert-Butylamino)-2-oxoethyl]-4-fluoro-1H-pyrazol-3-yl}oxy)-2-chloroanilino]-7-methoxyquinazolin-6-yl}-4-(dimethylamino)but-2-enamide]",2840
4.7,261,6.5,"COc1cc2ncnc(Nc3ccc(Oc4nn(CC(=O)NC(C)(C)C)cc4F)cc3F)c2cc1NC(=O)/C=C/CN(C)C [Example 46, (2E)-N-{4-[4-({1-[2-(tert-Butylamino)-2-oxoethyl]-4-fluoro-1H-pyrazol-3-yl}oxy)-2-fluoroanilino]-7-methoxyquinazolin-6-yl}-4-(dimethylamino)but-2-enamide]",3090
73.1,145,16.4,"COc1cc2ncnc(Nc3ccc(Oc4nc(C(=O)NC(C)(C)C)cs4)cc3F)c2cc1NC(=O)/C=C/CN(C)C [Example 47, N-tert-Butyl-2-{4-[(6-{[(2E)-4-(dimethylamino)but-2-enoyl]amino}-7-methoxyquinazolin-4-yl)amino]-3-fluorophenoxy}-1,3-thiazole-4-carboxamide]",816
4.9,638,8.1,"COc1cc2ncnc(Nc3ccc(Oc4nn(CC(=O)NC(C)(C)CF)cc4F)cc3Cl)c2cc1NC(=O)/C=C/CN(C)C [Example 48, (2E)-N-(4-{2-Chloro-4-[(4-fluoro-1-{2-[(1-fluoro-2-methylpropan-2-yl)amino]-2-oxoethyl}-1H-pyrazol-3-yl)oxy]anilino}-7-methoxyquinazolin-6-yl)-4-(dimethylamino) but-2-enamide]",3170
21.1,732,20.7,"COc1cc2ncnc(Nc3ccc(Oc4cccc(CC(=O)NC(C)(C)C)c4)cc3F)c2cc1NC(=O)/C=C/CN1CCOCC1 [Example 49, (2E)-N-[4-(4-{3-[2-(tert-Butylamino)-2-oxoethyl]phenoxy}-2-fluoroanilino)-7-methoxyquinazolin-6-yl]-4-(morpholin-4-yl)but-2-enamide]",> 10000
50.6,2890,33.4,"COc1cc2ncnc(Nc3ccc(Oc4nn(CC(=O)NC(C)(C)C)cc4F)cc3Cl)c2cc1NC(=O)/C=C/CN1CCOCC1 [Example 54, (2E)-N-{4-[4-({1-[2-(tert-Butylamino)-2-oxoethyl]-4-fluoro-1H-pyrazol-3-yl}oxy)-2-chloroanilino]-7-methoxyquinazolin-6-yl}-4-(morpholin-4-yl)but-2-enamide]",> 10000
4.6,635,8.5,"COc1cc2ncnc(Nc3ccc(Oc4nn(CC(=O)NC(C)(C)C)cc4F)cc3Cl)c2cc1NC(=O)/C=C/CN1CC[C@@H](F)C1 [Example 56, (2E)-N-{4-[4-({1-[2-(tert-Butylamino)-2-oxoethyl]-4-fluoro-1H-pyrazol-3-yl}oxy)-2-chloroanilino]-7-methoxyquinazolin-6-yl}-4-[(3R)-3-fluoropyrrolidin-1-yl]but-2-enamide]",4680
